Laboratory results taken from PubChem BioAssay AID330 (DTP/NCI, 2004).
Where “and” joins values, the source holds several entries; their conditions need not be identical. Identical values can stand only once. Toxic doses and inconclusive results are not listed. Rule for the calls: active = survival T/C of 150% or more; inactive = T/C below 125% in these data. Square brackets hold non-standard residues; d marks the D form. Peptide text beside a SMILES is read from it. * marks the point of attachment. ξ: configuration not given here. Cbz = O=C(OCc1ccccc1)*; ξM = CSCCC(N)C(=O)O

Test system: P388 leukemia ip, CD2F1 mice, survival T/C
Assay: NCI In Vivo Anticancer Drug Screen. Data for tumor model P388 Leukemia (intraperitoneal) in CD2F1 (CDF1) mice
Settings: endpoint: median survival time, higher = longer survival
Summary of the method: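 Mice carrying the transplanted tumor received test compound or vehicle. Survival was recorded in each group, and the value is the treated-group measurement divided by that of the vehicle-treated control group.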

[1] = dose: 60.0 mg/kg/injection, schedule: Q01DX005 (ip), vehicle: Klucel (hydroxypropylcellulose) (HPC)
[2] = dose: 120.0 mg/kg/injection, schedule: Q01DX005 (ip), vehicle: Klucel (hydroxypropylcellulose) (HPC)
[3] = dose: 240.0 mg/kg/injection, schedule: Q01DX005 (ip), vehicle: Klucel (hydroxypropylcellulose) (HPC)
[4] = dose: 50.0 mg/kg/injection, schedule: Q01DX005 (ip), vehicle: saline with Tween-80
[5] = dose: 100.0 mg/kg/injection, schedule: Q01DX005 (ip), vehicle: saline with Tween-80
[6] = dose: 50.0 mg/kg/injection, schedule: Q01DX005 (ip), vehicle: Klucel (hydroxypropylcellulose) (HPC)
[7] = dose: 100.0 mg/kg/injection, schedule: Q01DX005 (ip), vehicle: Klucel (hydroxypropylcellulose) (HPC)
[8] = dose: 200.0 mg/kg/injection, schedule: Q01DX005 (ip), vehicle: Klucel (hydroxypropylcellulose) (HPC)
[9] = dose: 50.0 mg/kg/injection, schedule: Q01DX009 (ip), vehicle: saline with Tween-80
[10] = dose: 100.0 mg/kg/injection, schedule: Q01DX009 (ip), vehicle: saline with Tween-80
[11] = dose: 200.0 mg/kg/injection, schedule: Q01DX009 (ip), vehicle: saline with Tween-80
[12] = dose: 50.0 mg/kg/injection, schedule: Q01DX009 (ip), vehicle: saline
[13] = dose: 100.0 mg/kg/injection, schedule: Q01DX009 (ip), vehicle: saline
[14] = dose: 200.0 mg/kg/injection, schedule: Q01DX009 (ip), vehicle: saline
[15] = dose: 25.0 mg/kg/injection, schedule: Q01DX009 (ip), vehicle: saline with Tween-80
[16] = dose: 60.0 mg/kg/injection, schedule: Q01DX005 (ip), vehicle: saline with Tween-80
[17] = dose: 120.0 mg/kg/injection, schedule: Q01DX005 (ip), vehicle: saline with Tween-80
[18] = dose: 240.0 mg/kg/injection, schedule: Q01DX005 (ip), vehicle: saline with Tween-80
[19] = dose: 15.0 mg/kg/injection, schedule: Q01DX005 (ip), vehicle: saline with Tween-80
[20] = dose: 30.0 mg/kg/injection, schedule: Q01DX005 (ip), vehicle: saline with Tween-80

Measured: T/C

Cc1c(-c2ccc(C(=N)N)cc2)oc(-c2ccc(C(=N)N)cc2)c1C
inactive: dose: 3.13 mg/kg/injection, schedule: Q01DX009 (ip), vehicle: saline with Tween-80 104 % of control | dose: 6.25 mg/kg/injection, schedule: Q01DX009 (ip), vehicle: saline with Tween-80 112 % of control

COc1cc(NCC2COc3c(ccc(OC)c3OC)C2=O)c([N+](=O)[O-])cc1OC (stereo not drawn)
inactive: [1] 90 % of control | [2] 92 % of control | [3] 86 % of control

COc1cc2oc(=O)ccc2cc1[C@@H]1OC(=O)C2(C)O[C@@H]12 (stereo partly drawn)
inactive: dose: 2.5 mg/kg/injection, schedule: Q01DX009 (ip), vehicle: saline 112 % of control | dose: 5.0 mg/kg/injection, schedule: Q01DX009 (ip), vehicle: saline 93 % of control | dose: 6.0 mg/kg/injection, schedule: Q01DX009 (ip), vehicle: Klucel (hydroxypropylcellulose) (HPC) 107 % of control | dose: 6.0 mg/kg/injection, schedule: Q01DX009 (ip), vehicle: saline with Tween-80 110 % of control | dose: 8.0 mg/kg/injection, schedule: Q01DX009 (ip), vehicle: Klucel (hydroxypropylcellulose) (HPC) 114 % of control | dose: 8.0 mg/kg/injection, schedule: Q01DX009 (ip), vehicle: saline with Tween-80 117 % of control | dose: 10.0 mg/kg/injection, schedule: Q01DX009 (ip), vehicle: Klucel (hydroxypropylcellulose) (HPC) 105 % of control | dose: 10.0 mg/kg/injection, schedule: Q01DX009 (ip), vehicle: saline with Tween-80 110 % of control | dose: 12.0 mg/kg/injection, schedule: Q01DX009 (ip), vehicle: Klucel (hydroxypropylcellulose) (HPC) 103 % of control | dose: 12.0 mg/kg/injection, schedule: Q01DX009 (ip), vehicle: saline with Tween-80 110 % of control

COc1cc(N=Nc2ccccc2)cc(/C=N\NC(=S)Nc2ccc(C)cc2)c1O
inactive: [4] 94 % of control | [5] 96 % of control

CSCCC(NC(=O)CNC(=O)CNC(=O)OCc1ccccc1)C(=O)O (stereo not drawn) (Cbz-Gly-Gly-[ξM]-OH)
inactive: [6] 95 % of control | [7] 98 % of control | [8] 98 % of control

COC(=O)CCC(C)C1CCC2C3=CC(=O)C4CC(OC(C)=O)CCC4(C)C3CC(OC(C)=O)C21C (stereo not drawn)
inactive: [9] 109 % of control | [10] 94 % of control | [11] 87 % of control

c1ccc(-[n+]2ccc(-c3cc[n+](-c4ccccc4)cc3)cc2)cc1
inactive: dose: 100.0 mg/kg/injection, schedule: Q04DX002 (ip), vehicle: Klucel (hydroxypropylcellulose) (HPC) 97 % of control

CCCC1(CC(=O)OCC)SCCN1C(=O)OCC (stereo not drawn)
inactive: dose: 25.0 mg/kg/injection, schedule: Q01DX005 (ip), vehicle: saline with Tween-80 102 % of control | [4] 102 % of control | [5] 102 % of control | dose: 200.0 mg/kg/injection, schedule: Q01DX005 (ip), vehicle: saline with Tween-80 102 % of control

Cc1cc(Br)ccc1N=Cc1ccc(C=Nc2ccc(Br)cc2C)cc1
inactive: [12] 90 % of control | [13] 86 % of control | [14] 92 % of control

CN1N=Nc2ccccc2C1O (stereo not drawn)
inactive: dose: 25.0 mg/kg/injection, schedule: Q01DX005 (ip), vehicle: Klucel (hydroxypropylcellulose) (HPC) 92 % of control | [6] 95 % of control | [7] 116 % of control

O=C1C=CC(CCCCCn2ccc(=O)[nH]c2=O)C(=O)N1 (stereo not drawn)
inactive: dose: 100.0 mg/kg/injection, schedule: Q01DX001 (ip), vehicle: saline 90 % of control | dose: 200.0 mg/kg/injection, schedule: Q01DX001 (ip), vehicle: saline 100 % of control | dose: 400.0 mg/kg/injection, schedule: Q01DX001 (ip), vehicle: saline 100 % of control

CCCCCCC(/C=C/c1c(Cl)cccc1Cl)=N\O
inactive: [15] 98 % of control | [9] 100 % of control | [10] 99 % of control and 109 % of control | [11] 101 % of control | dose: 400.0 mg/kg/injection, schedule: Q01DX009 (ip), vehicle: saline with Tween-80 118 % of control

C=C(CBr)CCCCC
inactive: [16] 104 % of control | [17] 105 % of control | [18] 117 % of control

COc1ccc(-c2csc(NC(=O)Nc3nc(-c4ccc(OC)cc4)cs3)n2)cc1
inactive: [19] 97 % of control | [20] 100 % of control | [16] 87 % of control and 91 % of control

Oc1c(Cl)cc(Cl)cc1/C=N/c1nc(-c2ccc(Cl)cc2)cs1
inactive: [10] 88 % of control | [11] 104 % of control

O=c1c(Cc2c(-c3ccccc3)[nH]c3ccccc23)coc2ccccc12
inactive: [16] 90 % of control | [17] 89 % of control

CNC(=O)OCc1c(C)oc(-c2ccccc2)c1COC(=O)NC
inactive: dose: 12.5 mg/kg/injection, schedule: Q01DX009 (ip), vehicle: distilled water + Tween-80 93 % of control | dose: 25.0 mg/kg/injection, schedule: Q01DX009 (ip), vehicle: distilled water + Tween-80 90 % of control | dose: 50.0 mg/kg/injection, schedule: Q01DX009 (ip), vehicle: distilled water + Tween-80 100 % of control

O=C(c1ccc2c(c1)C(=O)NC2=O)c1ccc2c(c1)C(=O)NC2=O
inactive: [15] 96 % of control | [9] 89 % of control | [10] 86 % of control

O=C(CN=Cc1ccc(Cl)cc1Cl)NNC(=O)c1ccc(Cl)cc1Cl
inactive: [6] 92 % of control | [7] 96 % of control | [8] 92 % of control

Nc1c(I)cc(I)cc1C(=O)O
inactive: dose: 50.0 mg/kg/injection, schedule: Q01DX009 (ip), vehicle: Klucel (hydroxypropylcellulose) (HPC) 99 % of control and 101 % of control | dose: 100.0 mg/kg/injection, schedule: Q01DX009 (ip), vehicle: Klucel (hydroxypropylcellulose) (HPC) 101 % of control and 114 % of control

Cc1ccc(-c2sc3ccccc3c(=O)c2CCl)cc1CO
inactive: [16] 100 % of control | [17] 95 % of control | [18] 90 % of control

COC(=O)C(N)C(F)c1ccccc1 (stereo not drawn)
inactive: [1] 107 % of control | [2] 100 % of control | [3] 98 % of control

O=C(Cc1nc2ccc(Cl)cc2nc1CC(=O)c1ccccc1)c1ccccc1
inactive: [19] 102 % of control | [20] 111 % of control | [16] 100 % of control and 107 % of control

COc1ccc(NC(=O)N2CC3CCN2CC3)cc1
inactive: [16] 99 % of control | [17] 93 % of control | [18] 90 % of control

C=CCn1c(-c2ccccn2)n[nH]c1=S
inactive: [16] 102 % of control | [17] 101 % of control | [18] 100 % of control

CCN(CC)C(=O)c1ccc[n+](CCC(N)=O)c1
inactive: dose: 100.0 mg/kg/injection, schedule: Q04DX003 (ip), vehicle: saline 90 % of control | dose: 200.0 mg/kg/injection, schedule: Q04DX003 (ip), vehicle: saline 100 % of control | dose: 400.0 mg/kg/injection, schedule: Q04DX003 (ip), vehicle: saline 100 % of control

O=[N+]([O-])c1cccnc1Sc1ccnc(Sc2ncccc2[N+](=O)[O-])n1
inactive: [9] 89 % of control | [12] 97 % of control | [13] 100 % of control and 96 % of control | [11] 89 % of control | [14] 89 % of control and 91 % of control

CCc1nnc(NC(=S)NC(=O)OC)s1
inactive: dose: 25.0 mg/kg/injection, schedule: Q04DX003 (ip), vehicle: saline with Tween-80 100 % of control | dose: 50.0 mg/kg/injection, schedule: Q04DX003 (ip), vehicle: saline with Tween-80 105 % of control | dose: 100.0 mg/kg/injection, schedule: Q04DX003 (ip), vehicle: saline with Tween-80 105 % of control

CC(=O)Nc1c(Cl)c(Cl)c2c(c1Cl)C(=O)c1cc(Cl)ccc1-2
inactive: [15] 90 % of control | [9] 90 % of control | [10] 90 % of control

COc1ccc2c(C[N+](C)(C)CCC#N)cc(=O)oc2c1
inactive: dose: 50.0 mg/kg/injection, schedule: Q04DX002 (ip), vehicle: saline 100 % of control | dose: 100.0 mg/kg/injection, schedule: Q04DX002 (ip), vehicle: saline 100 % of control | dose: 200.0 mg/kg/injection, schedule: Q04DX002 (ip), vehicle: saline 104 % of control

CCC(C)=C(C#N)NC(C)(C)C (mixture of isomers)
inactive: [12] 106 % of control | [13] 100 % of control | [14] 110 % of control
